{"source": "paper PMC8162405", "assay": "Double amide coupling of bis-quinoline diacid with diamine (bis-indole diamine 5, or 1,5-pentanediamine for the precursor of 17); TCFH (4 equiv), N-methylimidazole (8 equiv); diamine (ca. 1.1-1.2 equiv, 6 mM in DMF) added at 20 uL/min to the activated diacid; intermolecular amide first, then intramolecular amide closure", "details": "the molecule shown is the open-chain precursor, 2.0 mM"}
{"molecule": "CC(C)(C)OC(=O)N(CC(=O)Nc1ccc2ncc(C(=O)O)cc2c1)CC(=O)Nc1ccc2ncc(C(=O)Nc3ccc4[nH]cc(Cc5c[nH]c6ccc(N)cc56)c4c3)cc2c1", "note": "[13a1 (from 12a1 + 5)]", "values": [{"measurement": "ring closure, isolated yield", "setting": "30-membered ring", "value": 23, "unit": "%"}]}
{"molecule": "Nc1ccc2[nH]cc(Cc3c[nH]c4ccc(NC(=O)c5cnc6ccc(NC(=O)CCCCC(=O)Nc7ccc8ncc(C(=O)O)cc8c7)cc6c5)cc34)c2c1", "note": "[13a2 (from 12a2 + 5)]", "values": [{"measurement": "ring closure, isolated yield", "setting": "31-membered ring", "value": 21, "unit": "%"}]}
{"molecule": "Nc1ccc2[nH]cc(Cc3c[nH]c4ccc(NC(=O)c5cnc6ccc(NC(=O)CCCCCC(=O)Nc7ccc8ncc(C(=O)O)cc8c7)cc6c5)cc34)c2c1", "note": "[13a3 (from 12a3 + 5)]", "values": [{"measurement": "ring closure, isolated yield", "setting": "32-membered ring", "value": 20, "unit": "%"}]}
{"molecule": "Nc1ccc2[nH]cc(Cc3c[nH]c4ccc(NC(=O)c5cnc6ccc(NC(=O)CCCCCCC(=O)Nc7ccc8ncc(C(=O)O)cc8c7)cc6c5)cc34)c2c1", "note": "[13a4 (from 12a4 + 5)]", "values": [{"measurement": "ring closure, isolated yield", "setting": "33-membered ring", "value": 21, "unit": "%"}]}
{"molecule": "CC(C)(C)OC(=O)N(CCC(=O)Nc1ccc2cc(C(=O)O)cnc2c1)CCC(=O)Nc1ccc2cc(C(=O)Nc3ccc4[nH]cc(Cc5c[nH]c6ccc(N)cc56)c4c3)cnc2c1", "note": "[13b1 (from 12b1 + 5)]", "values": [{"measurement": "ring closure, isolated yield", "setting": "34-membered ring", "value": 21, "unit": "%"}]}
{"molecule": "Nc1ccc2[nH]cc(Cc3c[nH]c4ccc(NC(=O)c5cnc6cc(NC(=O)CCCCC(=O)Nc7ccc8cc(C(=O)O)cnc8c7)ccc6c5)cc34)c2c1", "note": "[13b2 (from 12b2 + 5)]", "values": [{"measurement": "ring closure, isolated yield", "setting": "33-membered ring", "value": 21, "unit": "%"}]}
{"molecule": "Nc1ccc2[nH]cc(Cc3c[nH]c4ccc(NC(=O)c5cnc6cc(NC(=O)CCCCCC(=O)Nc7ccc8cc(C(=O)O)cnc8c7)ccc6c5)cc34)c2c1", "note": "[13b3 (from 12b3 + 5)]", "values": [{"measurement": "ring closure, isolated yield", "setting": "34-membered ring", "value": 20, "unit": "%"}]}
{"molecule": "Nc1ccc2[nH]cc(Cc3c[nH]c4ccc(NC(=O)c5cnc6cc(NC(=O)CCCCCCC(=O)Nc7ccc8cc(C(=O)O)cnc8c7)ccc6c5)cc34)c2c1", "note": "[13b4 (from 12b4 + 5)]", "values": [{"measurement": "ring closure, isolated yield", "setting": "35-membered ring", "value": 27, "unit": "%"}]}
{"molecule": "Nc1ccc2[nH]cc(Cc3c[nH]c4ccc(NC(=O)c5cnc6cc(NC(=O)CCCCCCCC(=O)Nc7ccc8cc(C(=O)O)cnc8c7)ccc6c5)cc34)c2c1", "note": "[13b5 (from 12b5 + 5)]", "values": [{"measurement": "ring closure, isolated yield", "setting": "36-membered ring", "value": 23, "unit": "%"}]}
{"molecule": "NCCCCCNC(=O)c1cnc2ccc(NC(=O)CCCCC(=O)Nc3ccc4ncc(C(=O)O)cc4c3)cc2c1", "note": "[precursor of 17 (from 12a2 + 1,5-pentanediamine)]", "values": [{"measurement": "ring closure, isolated yield", "setting": "27-membered ring", "value": 15, "unit": "%"}]}
